Values quoted from earlier work in patent US20060160088A1, “Diagnostics and therapeutics for diseases associated with g protein-coupled receptor 40 (gpr40)” (Bayer Healthcare AG, priority 2003, published 2006).

Biological target: GPR40 (Homo sapiens, UniProt O14842)
Conditions: activation of GPR40; most potent fatty acid tested

Chain of GPR40 (O14842 whole entry): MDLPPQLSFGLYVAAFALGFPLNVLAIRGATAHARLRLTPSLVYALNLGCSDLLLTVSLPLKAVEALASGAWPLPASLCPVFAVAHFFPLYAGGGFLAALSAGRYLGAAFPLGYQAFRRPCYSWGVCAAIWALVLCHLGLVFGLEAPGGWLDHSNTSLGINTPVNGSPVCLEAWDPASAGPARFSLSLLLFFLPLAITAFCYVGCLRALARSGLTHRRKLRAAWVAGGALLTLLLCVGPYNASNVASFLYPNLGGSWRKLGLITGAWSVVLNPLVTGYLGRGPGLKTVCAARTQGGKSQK

CCCCCCCCC#CCC#CCC#CCCCC(=O)O [Eicosatriynoic acid]
pEC(50): 5.7
